This passage reports Kd and IC50 results from ChEMBL document CHEMBL3421567, “Non-electrophilic modulators of the canonical Keap1/Nrf2 pathway” (Bioorg Med Chem Lett, 2015).

Holding throughout (assay type): protein assay
Test [1] addresses T1, Keap1/Nrf2 (Homo sapiens, UniProt Q14145+Q16236). Description: Binding affinity to Keap1/Nrf2 complex (unknown origin) by fluorescence polarization assay.
The target in test [2] is T1, Keap1/Nrf2. Description: Inhibition of Keap1/Nrf2 complex (unknown origin).
In test [3] the target is T1, Keap1/Nrf2. Description: Binding affinity to Keap1/Nrf2 complex (unknown origin) by ITC method.

Residues, ends and D or L forms follow the SMILES beside them.

T1 sequence (Q16236 whole entry): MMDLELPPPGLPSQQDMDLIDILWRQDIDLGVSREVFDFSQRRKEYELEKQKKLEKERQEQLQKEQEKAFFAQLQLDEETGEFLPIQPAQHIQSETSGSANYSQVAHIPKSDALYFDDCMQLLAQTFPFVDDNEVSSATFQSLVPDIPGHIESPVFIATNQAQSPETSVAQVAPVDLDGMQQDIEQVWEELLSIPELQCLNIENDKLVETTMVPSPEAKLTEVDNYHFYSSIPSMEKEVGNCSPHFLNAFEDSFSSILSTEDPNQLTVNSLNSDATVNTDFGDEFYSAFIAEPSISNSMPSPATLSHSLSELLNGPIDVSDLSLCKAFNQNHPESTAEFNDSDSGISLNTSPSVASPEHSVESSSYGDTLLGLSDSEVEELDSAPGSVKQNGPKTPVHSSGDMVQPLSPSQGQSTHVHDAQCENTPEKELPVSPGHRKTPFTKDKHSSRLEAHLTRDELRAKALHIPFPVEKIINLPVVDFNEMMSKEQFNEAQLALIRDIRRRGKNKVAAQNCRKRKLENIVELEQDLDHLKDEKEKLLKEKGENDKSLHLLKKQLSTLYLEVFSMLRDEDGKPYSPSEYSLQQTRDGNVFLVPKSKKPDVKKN
T1 sequence (Q14145 whole entry): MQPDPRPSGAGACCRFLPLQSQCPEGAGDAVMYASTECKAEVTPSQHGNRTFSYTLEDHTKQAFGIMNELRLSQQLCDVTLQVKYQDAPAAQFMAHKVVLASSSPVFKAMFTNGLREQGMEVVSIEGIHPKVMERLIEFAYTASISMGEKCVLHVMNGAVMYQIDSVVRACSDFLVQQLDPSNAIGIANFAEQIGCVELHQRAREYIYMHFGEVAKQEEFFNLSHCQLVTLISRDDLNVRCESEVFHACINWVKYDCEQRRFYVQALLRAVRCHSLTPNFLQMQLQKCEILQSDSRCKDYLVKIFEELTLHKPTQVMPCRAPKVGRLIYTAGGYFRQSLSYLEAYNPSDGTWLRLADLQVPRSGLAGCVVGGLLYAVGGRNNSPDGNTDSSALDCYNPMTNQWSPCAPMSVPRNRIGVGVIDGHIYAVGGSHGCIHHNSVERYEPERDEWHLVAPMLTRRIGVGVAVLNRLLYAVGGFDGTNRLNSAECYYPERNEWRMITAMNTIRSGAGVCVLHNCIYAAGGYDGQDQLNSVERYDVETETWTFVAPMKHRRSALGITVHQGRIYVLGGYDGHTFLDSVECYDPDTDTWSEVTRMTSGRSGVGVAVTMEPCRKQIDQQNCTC

For the compound `CC[C@H](C)[C@H](NC(=O)[C@@H]1CCCN1C(=O)[C@H](CC(C)C)NC(=O)[C@H](Cc1ccccc1)NC(=O)[C@H](CCC(=O)O)NC(=O)CNC(=O)[C@@H](NC(=O)[C@H](CCC(=O)O)NC(=O)[C@H](CCC(=O)O)NC(=O)[C@H](CC(=O)O)NC(=O)[C@H](CC(C)C)NC(=O)[C@H](CCC(N)=O)NC(=O)[C@@H](N)CC(C)C)[C@@H](C)O)C(=O)N[C@@H](CCC(N)=O)C(=O)O`, binding in test [1] was characterised by a dissociation constant (Kd) of 61.9 nM.
For `Cc1cccc2c1CCN(C(=O)[C@H]1CCCC[C@H]1C(=O)O)[C@@H]2CN1Cc2ccccc2C1=O`, the IC50 in test [2] turned out to be 750 nM.
`CC(C)C[C@H](NC(=O)[C@@H](N)CC(=O)O)C(=O)NCC(=O)O` (H-Asp-Leu-Gly-OH) showed a Kd in test [3] of 1000 nM.
With `C[C@@H](O)[C@H](NC(=O)[C@@H](N)CCC(=O)O)C(=O)NCC(=O)N[C@@H](CCC(=O)O)C(=O)O` (H-ETGE-OH), in test [3], the equilibrium dissociation constant (Kd) was 5 nM.
